In ChEMBL document CHEMBL1150976, “The selectivity of protein kinase inhibitors: a further update” (Biochem J, 2007) one finds Activity data, which are given here for two compounds.

The target in test [1] is Casein kinase I isoform delta (Homo sapiens, UniProt P48730). The test can be described thus: Percentage CK1delta activity remaining in the presence of 2uM inhibitor.
Test [2] deals with Mitogen-activated protein kinase 1 (Homo sapiens) (UniProt P28482). The test is described as follows: Percentage ERK2 activity remaining in the presence of 2uM inhibitor.
Test [3] concerns the target T1, Mitogen-activated protein kinase 13 (Homo sapiens) (UniProt O15264).
T1 sequence (whole entry): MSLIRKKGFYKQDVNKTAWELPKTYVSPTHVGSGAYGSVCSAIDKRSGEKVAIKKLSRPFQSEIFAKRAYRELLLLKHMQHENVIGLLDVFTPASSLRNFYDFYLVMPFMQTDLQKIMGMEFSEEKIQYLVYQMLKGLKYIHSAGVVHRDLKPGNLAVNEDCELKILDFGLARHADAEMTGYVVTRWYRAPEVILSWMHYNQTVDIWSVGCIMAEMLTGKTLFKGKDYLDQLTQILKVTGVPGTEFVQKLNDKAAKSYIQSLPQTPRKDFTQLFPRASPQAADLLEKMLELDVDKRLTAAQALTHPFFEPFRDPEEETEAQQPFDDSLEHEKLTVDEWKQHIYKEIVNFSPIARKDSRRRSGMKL
The test can be described thus: Percentage p38delta activity remaining in the presence of 2uM inhibitor.

In test [4] the target is MAP/microtubule affinity-regulating kinase 3 (Homo sapiens) (UniProt P27448). The test can be described thus: Percentage MARK3 activity remaining in the presence of 2uM inhibitor.
Test [5] has as its target Dual specificity mitogen-activated protein kinase kinase 1 (Homo sapiens) (UniProt Q02750). The test is described as follows: Percentage MKK1 activity remaining in the presence of 2uM inhibitor.
The target in test [6] is T2, Serine/threonine-protein kinase Sgk1 (Homo sapiens) (UniProt O00141).
T2 sequence (whole entry): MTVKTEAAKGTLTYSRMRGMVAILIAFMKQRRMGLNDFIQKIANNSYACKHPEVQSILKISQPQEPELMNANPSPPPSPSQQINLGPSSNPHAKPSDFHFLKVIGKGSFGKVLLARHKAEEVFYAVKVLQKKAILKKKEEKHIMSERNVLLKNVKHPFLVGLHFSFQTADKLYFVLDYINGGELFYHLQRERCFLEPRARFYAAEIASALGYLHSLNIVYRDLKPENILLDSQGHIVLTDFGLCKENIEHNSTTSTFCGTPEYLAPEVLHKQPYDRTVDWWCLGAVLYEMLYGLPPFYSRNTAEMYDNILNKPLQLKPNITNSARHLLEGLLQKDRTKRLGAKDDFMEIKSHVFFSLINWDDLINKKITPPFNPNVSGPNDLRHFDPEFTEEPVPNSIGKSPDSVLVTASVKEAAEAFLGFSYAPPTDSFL
The test can be described thus: Percentage SGK1 activity remaining in the presence of 2uM inhibitor.

For test [7], the target named is Casein kinase II (Homo sapiens) (UniProt P67870+P68400+P19784). The test can be described thus: Percentage CK2 activity remaining in the presence of 3uM inhibitor. The class given is protein-complex assay.
Test [8] has as its target T3, Serine/threonine-protein kinase D1 (Homo sapiens) (UniProt Q15139).
T3 sequence (whole entry): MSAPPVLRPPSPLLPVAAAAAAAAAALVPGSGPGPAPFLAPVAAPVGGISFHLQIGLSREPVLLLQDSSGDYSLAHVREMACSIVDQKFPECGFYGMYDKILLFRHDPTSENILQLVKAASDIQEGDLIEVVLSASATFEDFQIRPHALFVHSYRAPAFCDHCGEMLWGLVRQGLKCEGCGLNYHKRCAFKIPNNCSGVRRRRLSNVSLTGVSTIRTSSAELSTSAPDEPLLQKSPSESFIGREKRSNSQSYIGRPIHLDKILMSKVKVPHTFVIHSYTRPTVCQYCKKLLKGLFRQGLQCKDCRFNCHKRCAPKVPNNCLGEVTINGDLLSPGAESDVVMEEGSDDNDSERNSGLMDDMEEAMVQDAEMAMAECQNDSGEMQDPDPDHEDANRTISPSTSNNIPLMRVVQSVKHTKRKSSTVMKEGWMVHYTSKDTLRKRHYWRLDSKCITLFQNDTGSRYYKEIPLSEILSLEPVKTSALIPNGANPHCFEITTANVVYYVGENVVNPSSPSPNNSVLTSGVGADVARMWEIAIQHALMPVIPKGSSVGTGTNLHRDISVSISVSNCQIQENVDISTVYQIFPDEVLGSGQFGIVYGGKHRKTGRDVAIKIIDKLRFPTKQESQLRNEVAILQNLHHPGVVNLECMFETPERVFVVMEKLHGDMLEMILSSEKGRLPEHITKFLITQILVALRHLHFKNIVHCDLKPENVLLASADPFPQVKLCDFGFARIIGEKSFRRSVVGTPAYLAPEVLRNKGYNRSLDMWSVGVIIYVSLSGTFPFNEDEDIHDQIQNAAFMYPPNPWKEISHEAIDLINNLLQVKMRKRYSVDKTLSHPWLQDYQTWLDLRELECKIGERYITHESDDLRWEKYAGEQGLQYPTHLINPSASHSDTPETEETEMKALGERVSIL
The test can be described thus: Percentage PKD1 activity remaining in the presence of 3uM inhibitor.

Test [9] concerns the target Tyrosine-protein kinase CSK (Homo sapiens, UniProt P41240). The test is described as follows: Percentage CSK activity remaining in the presence of 3uM inhibitor.
In test [10] the target is T4, Mitogen-activated protein kinase 15 (Homo sapiens) (UniProt Q8TD08).
T4 sequence (whole entry): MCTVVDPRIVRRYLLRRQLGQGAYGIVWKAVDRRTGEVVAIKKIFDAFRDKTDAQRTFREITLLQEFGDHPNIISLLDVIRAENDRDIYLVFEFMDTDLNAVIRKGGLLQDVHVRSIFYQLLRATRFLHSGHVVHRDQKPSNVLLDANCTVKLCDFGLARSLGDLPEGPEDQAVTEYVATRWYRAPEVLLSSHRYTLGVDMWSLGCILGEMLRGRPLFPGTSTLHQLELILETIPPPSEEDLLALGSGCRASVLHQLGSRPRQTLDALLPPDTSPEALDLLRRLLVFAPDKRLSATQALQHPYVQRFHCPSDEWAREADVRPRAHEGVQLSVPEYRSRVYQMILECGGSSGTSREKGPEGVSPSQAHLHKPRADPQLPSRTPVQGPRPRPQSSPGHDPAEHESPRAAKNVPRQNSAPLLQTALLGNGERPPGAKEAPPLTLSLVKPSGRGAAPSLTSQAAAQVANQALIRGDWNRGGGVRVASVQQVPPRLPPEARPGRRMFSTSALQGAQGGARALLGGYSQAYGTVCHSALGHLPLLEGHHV
The test is described as follows: Percentage ERK8 activity remaining in the presence of 3uM inhibitor.

The target of test [11] is Calcium/calmodulin-dependent protein kinase kinase 1 (Homo sapiens) (UniProt Q8N5S9). The test is described as follows: Percentage CaMKKalpha activity remaining in the presence of 3uM inhibitor.
Sequence of Calcium/calmodulin-dependent protein kinase kinase 1 (Homo sapiens) (Q8N5S9 whole entry, looked up): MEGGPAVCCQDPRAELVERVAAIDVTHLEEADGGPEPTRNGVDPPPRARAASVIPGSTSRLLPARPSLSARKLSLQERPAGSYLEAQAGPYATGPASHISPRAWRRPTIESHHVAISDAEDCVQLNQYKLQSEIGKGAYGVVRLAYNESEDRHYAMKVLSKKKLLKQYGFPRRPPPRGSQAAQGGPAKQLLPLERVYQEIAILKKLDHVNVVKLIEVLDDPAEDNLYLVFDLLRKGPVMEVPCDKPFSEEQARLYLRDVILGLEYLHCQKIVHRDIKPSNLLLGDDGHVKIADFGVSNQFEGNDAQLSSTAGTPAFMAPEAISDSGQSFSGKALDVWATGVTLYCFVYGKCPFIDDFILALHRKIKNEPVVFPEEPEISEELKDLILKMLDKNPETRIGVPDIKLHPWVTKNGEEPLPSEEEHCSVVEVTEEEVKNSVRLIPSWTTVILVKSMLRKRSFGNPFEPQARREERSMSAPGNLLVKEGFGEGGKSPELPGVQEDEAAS

Sequence of Casein kinase I isoform delta (P48730 whole entry, looked up, canonical isoform): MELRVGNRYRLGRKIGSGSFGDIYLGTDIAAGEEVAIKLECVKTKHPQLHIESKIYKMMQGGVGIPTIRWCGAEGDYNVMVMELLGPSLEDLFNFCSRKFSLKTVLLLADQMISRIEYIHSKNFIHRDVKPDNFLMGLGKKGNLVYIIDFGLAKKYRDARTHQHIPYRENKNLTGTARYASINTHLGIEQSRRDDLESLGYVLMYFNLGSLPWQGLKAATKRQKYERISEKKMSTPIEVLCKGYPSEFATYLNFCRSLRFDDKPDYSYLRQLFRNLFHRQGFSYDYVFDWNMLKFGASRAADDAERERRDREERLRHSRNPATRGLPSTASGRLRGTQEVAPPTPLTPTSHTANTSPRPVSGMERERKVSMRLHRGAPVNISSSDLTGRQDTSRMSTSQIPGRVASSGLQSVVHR
Sequence of MAP/microtubule affinity-regulating kinase 3 (Homo sapiens) (P27448 whole entry, looked up): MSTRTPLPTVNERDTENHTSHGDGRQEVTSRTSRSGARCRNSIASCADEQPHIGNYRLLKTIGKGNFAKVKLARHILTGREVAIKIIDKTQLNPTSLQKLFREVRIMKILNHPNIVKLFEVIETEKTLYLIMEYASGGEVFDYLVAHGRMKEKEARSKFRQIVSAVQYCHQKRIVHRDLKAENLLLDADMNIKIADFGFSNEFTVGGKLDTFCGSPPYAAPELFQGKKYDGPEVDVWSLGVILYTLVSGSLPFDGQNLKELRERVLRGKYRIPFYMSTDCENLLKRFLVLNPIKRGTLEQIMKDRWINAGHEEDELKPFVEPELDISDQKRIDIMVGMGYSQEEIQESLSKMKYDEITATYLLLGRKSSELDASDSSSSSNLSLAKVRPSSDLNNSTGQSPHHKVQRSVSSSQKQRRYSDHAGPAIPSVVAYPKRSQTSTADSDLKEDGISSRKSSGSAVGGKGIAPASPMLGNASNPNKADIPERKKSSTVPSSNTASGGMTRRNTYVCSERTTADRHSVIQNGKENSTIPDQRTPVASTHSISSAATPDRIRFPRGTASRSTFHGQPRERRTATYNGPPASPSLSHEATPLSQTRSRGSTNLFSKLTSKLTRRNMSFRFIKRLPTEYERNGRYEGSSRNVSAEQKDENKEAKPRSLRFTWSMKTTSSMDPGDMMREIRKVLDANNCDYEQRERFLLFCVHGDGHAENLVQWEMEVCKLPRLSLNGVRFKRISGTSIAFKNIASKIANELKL
Sequence of Mitogen-activated protein kinase 1 (Homo sapiens) (P28482 whole entry): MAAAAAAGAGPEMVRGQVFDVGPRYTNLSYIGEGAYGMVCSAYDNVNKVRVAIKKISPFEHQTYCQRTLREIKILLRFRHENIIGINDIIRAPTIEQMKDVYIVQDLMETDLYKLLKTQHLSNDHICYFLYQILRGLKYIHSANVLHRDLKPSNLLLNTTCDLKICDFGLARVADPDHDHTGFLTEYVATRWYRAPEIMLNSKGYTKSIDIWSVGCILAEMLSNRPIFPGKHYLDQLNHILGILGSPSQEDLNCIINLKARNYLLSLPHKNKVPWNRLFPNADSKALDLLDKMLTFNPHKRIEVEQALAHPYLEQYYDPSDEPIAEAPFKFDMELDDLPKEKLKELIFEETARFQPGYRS
Sequence of Tyrosine-protein kinase CSK (P41240 2-450 limits assumed): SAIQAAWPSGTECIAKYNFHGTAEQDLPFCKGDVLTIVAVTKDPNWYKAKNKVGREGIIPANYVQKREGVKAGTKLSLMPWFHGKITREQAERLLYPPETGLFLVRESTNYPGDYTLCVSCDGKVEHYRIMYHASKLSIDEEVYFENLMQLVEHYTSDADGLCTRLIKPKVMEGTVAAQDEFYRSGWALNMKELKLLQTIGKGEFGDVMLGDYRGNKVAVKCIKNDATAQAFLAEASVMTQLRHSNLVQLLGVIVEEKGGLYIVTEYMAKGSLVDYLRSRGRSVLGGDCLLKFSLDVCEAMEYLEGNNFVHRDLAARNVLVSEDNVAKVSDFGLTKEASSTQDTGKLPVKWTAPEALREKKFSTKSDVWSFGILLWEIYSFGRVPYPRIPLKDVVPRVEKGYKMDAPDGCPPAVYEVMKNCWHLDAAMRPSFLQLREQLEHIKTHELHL
Sequence of Dual specificity mitogen-activated protein kinase kinase 1 (Homo sapiens) (Q02750 whole entry): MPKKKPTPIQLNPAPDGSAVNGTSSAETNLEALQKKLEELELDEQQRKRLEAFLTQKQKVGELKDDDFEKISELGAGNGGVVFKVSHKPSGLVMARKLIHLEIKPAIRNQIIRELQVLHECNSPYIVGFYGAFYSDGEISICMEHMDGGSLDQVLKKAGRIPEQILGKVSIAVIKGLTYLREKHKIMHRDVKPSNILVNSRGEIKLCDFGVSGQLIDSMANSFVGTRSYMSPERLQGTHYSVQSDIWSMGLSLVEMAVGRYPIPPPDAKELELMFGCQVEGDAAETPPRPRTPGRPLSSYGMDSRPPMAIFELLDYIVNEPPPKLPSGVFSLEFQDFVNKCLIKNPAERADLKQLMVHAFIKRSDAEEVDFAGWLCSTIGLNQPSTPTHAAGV

Regarding `Cn1cc(C2=C(c3ccc(Cl)cc3Cl)C(=O)NC2=O)c2ccccc21`, the Activity came out at 78% in test [1]; 97% in test [2]; 81% in test [3]; 76% in [4]; 71% in test [5]; 100% in [6].

Regarding `Cc1ccc(-c2c(C(=O)CF)n(CCCO)c3ncnc(N)c23)cc1`, the Activity in test [7] is 92%; in test [8], 83%; in test [9] it was 55%; in test [10], 58%; in test [11], 70%.
